According to patent publication US20230312605A1, “PYRROLO[2,1-F][1,2,4]TRIAZINES AND PREPARATION AND USES THEREOF” (BioSplice Therapeutics, Inc., priority 2021, published 2023):

Biological target: recombinant DYRK1A kinase (Homo sapiens (Human), UniProt Q13627)
Experiment: DYRK1A kinase assay (Ser/Thr 18 peptide Z-lyte FRET assay)
Format: biochemical
Conditions: recombinant DYRK1A 0.25 µg/mL, ATP 15 µM, Ser/Thr peptide 18 4 µM, one hour at room temperature; table head prints EC50, method says IC50
Description: Representative compounds were screened using the assay procedure for DYRK1A kinase activity as described below.
Each compound was dissolved in DMSO as a 10 mM stock and used to prepare compound source plates. Serial dilution (1:3, 11-point dose-response curves from 10 µM to 0.00016 µM) and compound transfer was performed using the ECHO 550 (Labcyte, Sunnyvale, CA) into 1536-well black-walled round bottom plates (Corning).
The DYRK1A kinase assay was run using the Ser/Thr 18 peptide Z-lyte assay kit according to manufacturer’s instructions (Life Technologies- a Division of Thermo-Fisher). This is a non-radioactive assay using fluorescence resonance energy transfer (FRET) between coumarin and fluorescein to detect kinase activity which is represented as a ratio of coumarin emission/fluorescein emission.
Briefly, recombinant DYRK1A kinase, ATP and Ser/Thr peptide 18 were prepared in 1X Kinase buffer to final concentrations of 0.25 µg/mL, 15 µM, and 4 µM respectively. The mixture was allowed to incubate with the representative compounds for one hour at room temperature. All reactions were performed in duplicate. Unphosphorylated (“0% Control”) and phosphorylated (“100% control”) forms of Ser/Thr 18 served as control reactions. Additionally, an 11-point dose-response curve of Staurosporine (1uM top) was run to serve as a positive compound control.
After incubation, Development Reagent A was diluted in Development Buffer then added to the reaction and allowed to further incubate for one hour at room temperature. The plate was read at Ex 400 Em 455 to detect the coumarin signal and Ex 400 Em 520 to measure the signal (EnVision Multilabel Plate Reader, PerkinElmer).
The Emission ratio (Em) was calculated as a ratio of the coumarin (C) emission signal (at 445 nm)/Fluorescein (F) emission signal (at 520 nm). The percent phosphorylation was then calculated using the following formula: [1 — ((Em ratio X F100%)—C100%)/ ((C0%—C100%) + (Em ratio X (F100% - F0%)))]. Dose-response curves were generated, and inhibitory concentration (IC50) values were calculated using non-linear regression curve fit in the Dotmatics’ Studies Software (Bishops Stortford, UK).

Row | Structure (SMILES) | EC50 [nM]
1 | FC1(F)CC(Nc2ncc3c(-c4cnc5nccn5c4)ccn3n2)C1 [Compound 236, N-(3,3-Difluorocyclobutyl)-5-(imidazo[1,2-a]pyrimidin-6-yl)pyrrolo[2,1-f] [1,2,4]triazin-2-amine] | 9
2 | Cc1nc2ncc(-c3ccn4nc(NC5CCN(CC(F)F)CC5)ncc34)cc2n1CC(F)F [Compound 1882, 5-(1-(2,2-Difluoroethyl)-2-methyl-1H-imidazo[4,5-b]pyridin-6-yl)-N-(1-(2,2-difluoroethyl)piperidin-4-yl)pyrrolo[2,1-f][1,2,4]triazin-2-amine] | 4
3 | Cc1nc2ccc(-c3ccn4nc(NC[C@@H](C)O)ncc34)nc2n1CC(F)F [Compound 1831, (R)-1-((5-(3-(2,2-Difluoroethyl)-2-methyl-3H-imidazo[4,5-b]pyridin-5-yl)pyrrolo [2,1-f] [1,2,4]triazin-2-yl)amino)propan-2-ol] | 7
4 | CC(=O)N1C[C@@H](F)[C@@H](Nc2ncc3c(-c4ccc5nc(C)n(CC(F)F)c5n4)ccn3n2)C1 [Compound 1940, 1-((3S,4R)-3-((5-(3-(2,2-Difluoroethyl)-2-methyl-3H-imidazo[4,5-b]pyridin-5-yl)pyrrolo[2,1-f] [1,2,4]triazin-2-yl)amino)-4-fluoropyrrolidin-1-yl)ethan-1-one] | 7
5 | C[C@]1(O)CC[C@H](Nc2ncc3c(-c4ccc5nccn5c4)ccn3n2)CC1 [Compound 1828, trans-4-((5-(Imidazo[1,2-a]pyridin-6-yl)pyrrolo[2,1-f][l,2,4]triazin-2-yl)amino) -1-methylcyclohexan-1-ol] | 10
6 | c1cn2cc(-c3ccn4nc(NCC5COC5)ncc34)ccc2n1 [Compound 20] | 67

The remaining lines, values ahead:

Row | EC50 [nM] | Structure (SMILES)
7 | 15 | CC(C)(F)CNc1ncc2c(-c3ccc4ncccc4c3)ccn2n1 [Compound 1281, N-(2-Fluoro-2-methylpropyl)-5-(quinolin-6-yl)pyrrolo[2,1-f][1,2,4]triazin-2-amine]
8 | 9 | CO[C@H]1CC[C@H](Nc2ncc3c(-c4cnc5nccn5c4)ccn3n2)CC1 [Compound 260, 5-(Imidazo[1,2-a]pyrimidin-6-yl)-N-(trans-4-methoxycyclohexyl)pyrrolo [2,1-f] [1,2,4]triazin-2-amine]
9 | 2 | Cc1nc2ccc(-c3ccn4nc(N[C@H]5C[C@@H](N6CCOCC6)C5)ncc34)nc2n1CC(F)F [Compound 1892, 5-(3-(2,2-Difluoroethyl)-2-methyl-3H-imidazo[4,5-b]pyridin-5-yl)-N-(cis-3-morpholinocyclobutyl)pyrrolo[2,1-f][1,2,4]triazin-2-amine]
10 | 8 | Cc1nc2ccc(-c3ccn4nc(N[C@@H]5CCCOC5)ncc34)nc2n1CC(F)F [Compound 1863, (R)-5-(3-(2,2-Difluoroethyl)-2-methyl-3H-imidazo[4,5-b]pyridin-5-yl)-N-(tetrahydro-2H-pyran-3-yl)pyrrolo[2,1-f][1,2,4]triazin-2-amine]
11 | 6 | Cc1nc2ccc(-c3ccn4nc(N[C@H]5CCN(C)C[C@H]5F)ncc34)nc2n1CC(F)F [Compound 1856]
12 | 26 | Cc1nc2ccc(-c3ccn4nc(N[C@H]5CC[C@@H](OC(F)(F)F)CC5)ncc34)nc2n1CC(F)F [Compound 1792, 5-(3-(2,2-Difluoroethyl)-2-methyl-3H-imidazo[4,5-b]pyridin-5-yl)-N-(cis-4-(trifluoromethoxy)cyclohexyl)pyrrolo[2,1-f][1,2,4]triazin-2-amine]
13 | 3 | CC(=O)N1CCC(Nc2ncc3c(-c4ccc5nc(C)n(CC(F)F)c5n4)ccn3n2)CC1 [Compound 1857, 1-(4-((5-(3-(2,2-Difluoroethyl)-2-methyl-3H-imidazo[4,5-b]pyridin-5-yl)pyrrolo[2,1-f][1,2,4]triazin-2-yl)amino)piperidin-1-yl)ethan-1-one]
14 | 11 | Cc1nc2ccc(-c3ccn4nc(N[C@H]5CC[C@@H](CN6CC(F)C6)CC5)ncc34)nc2n1CC(F)F [Compound 1894, 5-(3-(2,2-Difluoroethyl)-2-methyl-3H-imidazo[4,5-b]pyridin-5-yl)-N-(cis-4-((3-fluoroazetidin-1-yl)methyl)cyclohexyl)pyrrolo [2,1-f] [1,2,4]triazin-2-amine]
